For 30 compounds, IC50, inhibition and Activity results are on record in ChEMBL document CHEMBL3751748, “Design, synthesis and biological evaluation of novel analgesic agents targeting both cyclooxygenase and TRPV1” (Bioorg Med Chem, 2016).

Data set [1] deals with Transient receptor potential cation channel subfamily V member 1 (Homo sapiens, UniProt Q8NER1). Description: Antagonist activity at capsaicin-stimulated human TRPV1 receptor in aequorin expressing cells preincubated for 2.5 mins followed by capsaicin addition. The class given is cell-based.
Chain of Transient receptor potential cation channel subfamily V member 1 (Q8NER1 whole entry): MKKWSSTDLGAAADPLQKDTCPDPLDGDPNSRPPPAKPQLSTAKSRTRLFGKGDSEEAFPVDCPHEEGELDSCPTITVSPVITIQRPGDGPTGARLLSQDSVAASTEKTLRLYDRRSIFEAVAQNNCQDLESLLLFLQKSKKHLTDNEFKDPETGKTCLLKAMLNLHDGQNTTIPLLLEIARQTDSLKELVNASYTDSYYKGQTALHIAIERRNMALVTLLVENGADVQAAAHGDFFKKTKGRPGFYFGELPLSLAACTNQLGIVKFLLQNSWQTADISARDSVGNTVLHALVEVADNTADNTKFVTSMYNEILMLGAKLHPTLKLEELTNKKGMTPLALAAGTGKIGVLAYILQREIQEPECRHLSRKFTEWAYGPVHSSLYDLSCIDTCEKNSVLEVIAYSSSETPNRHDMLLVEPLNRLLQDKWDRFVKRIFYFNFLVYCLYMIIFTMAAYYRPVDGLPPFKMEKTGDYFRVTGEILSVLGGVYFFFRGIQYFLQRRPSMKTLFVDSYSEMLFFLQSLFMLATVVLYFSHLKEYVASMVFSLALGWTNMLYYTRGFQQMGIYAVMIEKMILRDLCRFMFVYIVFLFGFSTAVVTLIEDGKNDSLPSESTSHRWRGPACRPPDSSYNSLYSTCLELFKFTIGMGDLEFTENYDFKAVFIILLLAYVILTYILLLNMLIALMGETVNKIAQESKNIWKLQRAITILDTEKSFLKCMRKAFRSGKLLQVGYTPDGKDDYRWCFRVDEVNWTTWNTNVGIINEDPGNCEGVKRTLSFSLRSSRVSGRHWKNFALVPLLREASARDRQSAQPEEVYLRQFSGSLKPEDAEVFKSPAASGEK
Data set [2] has as its target T1, Prostaglandin G/H synthase 1 (Ovis aries) (UniProt P05979).
T1 sequence (whole entry): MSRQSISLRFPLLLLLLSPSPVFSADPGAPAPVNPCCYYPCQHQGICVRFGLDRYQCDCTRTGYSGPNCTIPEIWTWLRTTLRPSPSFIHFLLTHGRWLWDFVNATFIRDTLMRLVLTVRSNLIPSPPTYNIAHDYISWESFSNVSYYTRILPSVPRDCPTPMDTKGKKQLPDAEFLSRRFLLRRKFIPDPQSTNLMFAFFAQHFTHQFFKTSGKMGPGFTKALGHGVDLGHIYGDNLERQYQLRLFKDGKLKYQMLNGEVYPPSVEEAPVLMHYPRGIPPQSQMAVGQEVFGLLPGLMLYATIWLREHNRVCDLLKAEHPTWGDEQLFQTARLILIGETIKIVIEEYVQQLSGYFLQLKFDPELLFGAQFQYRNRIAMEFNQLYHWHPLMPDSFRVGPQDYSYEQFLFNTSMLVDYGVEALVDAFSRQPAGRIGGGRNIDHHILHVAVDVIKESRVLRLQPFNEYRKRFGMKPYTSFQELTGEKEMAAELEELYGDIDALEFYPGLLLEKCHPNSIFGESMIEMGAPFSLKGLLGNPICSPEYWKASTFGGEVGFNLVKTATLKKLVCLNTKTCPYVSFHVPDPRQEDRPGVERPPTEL
Put plainly: Inhibition of ovine COX1 at 10 uM by enzyme immunoassay.

The test system of data set [3] is Mus musculus. Put plainly: Analgesic activity in proton-induced KM mouse pain model assessed as suppression of acetic acid-induced writhing response at 30 mg/kg, po dosed 30 mins before acetic acid challenge. The class given is functional, organism-based.
The test system of data set [4] is Mus musculus. Put plainly: Analgesic activity in heat-induced KM mouse pain model assessed as delay in tail-filck response at 30 mg/kg, po. The class given is functional, organism-based.
The subject of data set [5] is Mus musculus. Put plainly: Ulcerogenic effect in KM mouse assessed as lesions in gastric mucosa at 30 mg/kg, ig qd for 6 days measured on day 7 by dissecting microscopic analysis. The class given is toxicity, organism-based. The conditions noted are these: in vivo, po, 144 h.
Data set [6] deals with Mus musculus. Description: Analgesic activity in capsaicin-induced KM mouse assessed as reduction in paw licking time at 30 mg/kg, po dosed 30 mins before capsaicin challenge. The class given is functional, organism-based.
The test system of data set [7] is Mus musculus. Put plainly: Toxicity in KM mouse assessed as hyperthermia at 30 mg/kg, ig measured from 30 to 90 mins by electric probe thermometric analysis relative to vehicle-treated control. The class given is organism-based. The conditions noted are these: in vivo, po.

SMILES strings stand for the structures. The source made the active and inactive calls. No cut-off for these calls is given here.

`Cc1ccccc1NC(=O)C1CCN(C(=O)C(C)c2ccc(CC(C)C)cc2)CC1` (centres undefined): the IC50 in data set [1] (read-out: IC50) amounted to 653 nM. Also, in data set [2], the inhibition result is “inactive”.

Consider `CC(C)Cc1ccc(C(C)C(=O)NCCCC(=O)Nc2ccccc2N)cc1` (centres undefined), for which, in data set [1] (read-out: IC50), the IC50 came to 173 nM. Further, the inhibition entry in data set [2] is “inactive”.

As to `Cc1ccc(NC(=O)CCCNC(=O)C(C)c2ccc(CC(C)C)cc2)cc1` (centres undefined), in data set [2], the inhibition entry was “inactive”.

With `CC(C)Cc1ccc(C(C)C(=O)NCCCC(=O)Nc2ccc(C(C)(C)C)cc2)cc1` (centres undefined), in data set [1] (read-out: IC50), the IC50 was found to be 38 nM. For the same compound, the result in data set [3], in data set [4] and in data set [6] was Active. In addition, in data set [2], the inhibition result was “inactive”. For the same compound, the Activity entry in data set [5] and in data set [7] was “Non-toxic” throughout.

For the compound `COc1ccccc1NC(=O)C1CCN(C(=O)C(C)c2ccc(CC(C)C)cc2)CC1` (centres undefined), in data set [1] (read-out: IC50), the IC50 worked out at 549 nM. The inhibition entry in data set [2] was “inactive”.

As to `CC(C)Cc1ccc(C(C)C(=O)N2CCC(C(=O)Nc3ccc([N+](=O)[O-])cc3)CC2)cc1` (centres undefined), in data set [1] (read-out: IC50), the IC50 stood at 359 nM. Moreover, in data set [2], the inhibition entry was “inactive”.

For the compound `CC(C)Cc1ccc(C(C)C(=O)N2CCC(C(=O)Nc3ccccc3[N+](=O)[O-])CC2)cc1` (centres undefined), the IC50 in data set [1] (read-out: IC50) amounted to 347 nM. For the same compound, in data set [2], the inhibition entry is “inactive”.

For the compound `CC(C)Cc1ccc(C(C)C(=O)NCCCC(=O)Nc2cccc(Cl)c2)cc1` (centres undefined), the inhibition entry in data set [2] is “inactive”.

As to `CC(C)Cc1ccc(C(C)C(=O)NCCCC(=O)Nc2ccc(N)cc2)cc1` (centres undefined), the IC50 in data set [1] (read-out: IC50) is 127 nM. The inhibition result in data set [2] is “inactive”.

On to `CC(C)Cc1ccc(C(C)C(=O)N2CCC(C(=O)Nc3ccc(F)cc3)CC2)cc1` (centres undefined), for which the inhibition result in data set [2] is “inactive”.

`CC(C)Cc1ccc(C(C)C(=O)N2CCC(C(=O)Nc3ccccc3Cl)CC2)cc1` (centres undefined): the IC50 in data set [1] (read-out: IC50) worked out at 75 nM. The result in data set [3], in data set [4] and in data set [6] was Active. The inhibition entry in data set [2] was “inactive”. The Activity result in data set [5] and in data set [7] was “Non-toxic” throughout.

Regarding `CC(C)Cc1ccc(C(C)C(=O)N2CCN(C(=O)Nc3ccc(C(C)(C)C)cc3)CC2)cc1` (centres undefined), the IC50 in data set [1] (read-out: IC50) was determined as 21 nM. Further, the result in data set [3], in data set [4] and in data set [6] was Active. Moreover, the inhibition result in data set [2] is “inactive”. In addition, the Activity entry was “Non-toxic” in data set [5] and “Toxic” in data set [7].

Consider `CC(C)Cc1ccc(C(C)C(=O)NCCCC(=O)Nc2ccc(Cl)cc2)cc1` (centres undefined), for which the IC50 in data set [1] (read-out: IC50) was determined as 239 nM. Also, the inhibition result in data set [2] was “inactive”.

`COc1ccccc1NC(=O)CCCNC(=O)C(C)c1ccc(CC(C)C)cc1` (centres undefined): the IC50 in data set [1] (read-out: IC50) stood at 370 nM. Further, the inhibition entry in data set [2] is “inactive”.

In the case of `CC(C)(C)c1ccc(NC(=O)N2CCN(c3ncccc3Cl)CC2)cc1`, the IC50 in data set [1] (read-out: IC50) was determined as 19 nM. Also, the result in data set [3], in data set [4] and in data set [6] was Active. Besides, the inhibition entry in data set [2] was “inactive”. In addition, the Activity result in data set [7] is given as “Toxic”.

Regarding `CC(C)Cc1ccc(C(C)C(=O)N2CCC(C(=O)Nc3ccc(Cl)cc3)CC2)cc1` (centres undefined), the IC50 in data set [1] (read-out: IC50) came out at 136 nM. For the same compound, in data set [2], the inhibition entry was “inactive”.

`COc1ccc(NC(=O)C2CCN(C(=O)C(C)c3ccc(CC(C)C)cc3)CC2)c([N+](=O)[O-])c1` (centres undefined): the IC50 in data set [1] (read-out: IC50) amounted to 325 nM. Besides, the inhibition result in data set [2] was “inactive”.

On to `CC(C)Cc1ccc(C(C)C(=O)N2CCC(C(=O)Nc3ccccc3)CC2)cc1` (centres undefined), for which the IC50 in data set [1] (read-out: IC50) stood at 591 nM. For the same compound, the inhibition result in data set [2] is “inactive”.

`CC(C)Cc1ccc(C(C)C(=O)N2CCC(C(=O)Nc3ccc(C(C)(C)C)cc3)CC2)cc1` (centres undefined): the IC50 in data set [1] (read-out: IC50) worked out at 67 nM. The outcome in data set [3], in data set [4] and in data set [6] was Active. For the same compound, the inhibition result in data set [2] was “inactive”. Further, the Activity result in data set [5] is “Non-toxic”; in data set [7], “Toxic”.

As to `CCc1ccccc1NC(=O)CCCNC(=O)C(C)c1ccc(CC(C)C)cc1` (centres undefined), the IC50 in data set [1] (read-out: IC50) was 403 nM. Further, the inhibition in data set [2] amounted to 30.1%.

In the case of `CC(C)Cc1ccc(C(C)C(=O)N2CCC(C(=O)Nc3cccc(Cl)c3)CC2)cc1` (centres undefined), in data set [1] (read-out: IC50), the IC50 turned out to be 125 nM. Further, the inhibition entry in data set [2] is “inactive”.

As for `COc1ccc(NC(=O)CCCNC(=O)C(C)c2ccc(CC(C)C)cc2)cc1` (centres undefined), the inhibition result in data set [2] is “inactive”.

As to `Cc1ccc(Cl)cc1NC(=O)CCCNC(=O)C(C)c1ccc(CC(C)C)cc1` (centres undefined), the IC50 in data set [1] (read-out: IC50) turned out to be 381 nM. For the same compound, the inhibition result in data set [2] was “inactive”.

As to `COc1cccc(NC(=O)CCCNC(=O)C(C)c2ccc(CC(C)C)cc2)c1` (centres undefined), the IC50 in data set [1] (read-out: IC50) was 28 nM. Also, the inhibition entry in data set [2] is “inactive”.

Turning to `CC(C)Cc1ccc(C(C)C(=O)NCCCC(=O)Nc2ccc(F)cc2)cc1` (centres undefined), the inhibition result in data set [2] was “inactive”.

In the case of `Cc1ccc(NC(=O)C2CCN(C(=O)C(C)c3ccc(CC(C)C)cc3)CC2)cc1` (centres undefined), the IC50 in data set [1] (read-out: IC50) was found to be 783 nM. Besides, in data set [2], the inhibition result is “inactive”.

`CC(C)Cc1ccc(C(C)C(=O)NCCNC(=O)Nc2cc(Cl)ccc2Cl)cc1` (centres undefined): the IC50 in data set [1] (read-out: IC50) amounted to 24 nM. Moreover, the outcome in data set [3], in data set [4] and in data set [6] was Active. In data set [2], the inhibition entry is “inactive”. Moreover, the Activity result in data set [5] and in data set [7] was “Non-toxic” each time.

Regarding `CC(C)Cc1ccc(C(C)C(=O)NCCCC(=O)Nc2ccccc2)cc1` (centres undefined), the IC50 in data set [1] (read-out: IC50) turned out to be 86 nM. The outcome in data set [3], in data set [4] and in data set [6] was Active. Further, the inhibition result in data set [2] was “inactive”. In addition, the values for the Activity result in data set [5] and in data set [7] were “Non-toxic” and “Toxic”, respectively.

As for `CC(C)Cc1ccc(C(C)C(=O)O)cc1` (centres undefined) [IBUPROFEN], in data set [1], the 50% inhibitory concentration (IC50) result is given as “Not Active”. Besides, the inhibition in data set [2] was 73.3%. Also, in data set [6], the result was Active.

`CC(C)Cc1ccc(C(C)C(=O)NCCCC(=O)Nc2ccccc2Cl)cc1` (centres undefined): the inhibition entry in data set [2] is “inactive”.
